Assay results taken from patent publication US7160916B2, “Method of increasing bone density or treating osteoporosis” (Yung Shin Pharmaceutical Ind. Co., Ltd., priority 2003, dated 2007).

Experiments:
Primary osteoblast cells = test: Assay of alkaline phosphatase activity in cultured osteoblasts; type: cell-based, rat
Experimental: Primary osteoblast cultures: Primary osteoblast cells were prepared from calvaria of 18-day-old fetal Sprague-Dawley (SD) rats according to the following method: Pregnant rats were put in anesthesia using intraperitoneal injection of trichloroacetaldehyde (200 mg/kg). The calvaria of the fetal rats were then dissected with aseptic technique. Soft tissues were removed under a dissecting microscope. The calvaria were divided into small pieces and then treated with 0.1% collagenase (Sigma Chemical, St. Louis, Mo.) solution for 10 minutes at 37° C. The cells released from the calvariae by two 20-minute sequential collagenase digestions were pooled and filtered through 70 μm nylon filters (Falcon, BD BioSciences, San Jose, Calif.). The cells were then grown on plastic cell culture dishes in 95:5 air-CO2 with Dulbecco's modified Eagle's medium (DMEM) (Gibco, Grand Island, N.Y.) which was supplemented with 20 mM HEPES and 10% heat-inactivated FCS, 2 mM-glutamine, penicillin (100 U/ml) and streptomycin (100 μg/ml) (pH adjusted to 7.6). The cell medium was changed twice a week. Osteoblasts were confirmed by morphology and expression of alkaline phosphatase (ALP). To examine the maturation of osteoblasts, cells were cultured for up to 14 days in a growth medium containing ascorbic acid (50 μg/ml) (Sigma Chemical, St. Louis, Mo.) and β-glycerophosphate (10 mM) (Sigma Chemical, St. Louis, Mo.) and the medium was changed every 3 day. Assay of alkalinephosphatase activity: Cells cultured in 6-well plates in the presence or absence of Indazole 1 were harvested in 1 ml of 0.2% Nonidet P-40 and cell suspension was disrupted by sonication. After centrifugation at 1500 g for 5 min, ALP activity in the supernatant was measured by the method of Lowry et al (1954) J Biol Chem 207:19–37.

Male SD rats = test: Local injection into proximal tibia, bone histomorphometry (bone growth); type: in vivo, rat; settings: L-NAME 0.6 nmole/day given with Indazole 1, versus Indazole 1 alone
Experimental: Assay of bone resorption of osteoclast: Osteoclast precursors were isolated from rat long bones as mentioned above. The cells were re-suspended in a complete DMEM medium and plated into a calcium phosphate apatite-coated 24-well plate, OAAS (Oscotec, OCT USA Inc.) at 1×10^6 cells/0.5 ml/well. The cells were cultured for 5 days in the presence of M-CSF (20 ng/ml) plus sRANKL (50 ng/ml). Indazole 1 was injected daily for additional 3 days in the absence of M-CSF and sRANKL. Culture was terminated on day 8 and the remaining cells in the plate were lysed using 1 N NaOH. Five images per well were obtained using an inverted microscope (200×), and resorbed area was measured using an image analyzer. Local injection Male SD rats weighing 70–88 gm were used. Implantation of a cannula (22G) was done from the posteriolateral side into the proximal tibial metaphysis in both limbs of rats anesthetized with pentobarbital. The cannula had its outer end in the subcutaneous tissue. Indazole 1 was percutaneously injected through the cannula into the proximal tibia once/day for 1 week. The same concentration of DMSO diluted with normal saline was injected into the right side for comparison. On day 14, the rats were sacrificed and tibiae were fixed in 10% formaldehyde for 48 h at 4° C. Bone histomorphometry: After formalin fixation of tibia was completed, the tibiae were then decalcified in 0.5 N hydrochloric acid, dehydrated in an ascending series of ethanol solution and acetone, and embedded in paraffin. Serial sections (5 μm) were cut longitudinally and stained with Mayer's hematoxylin-eosin solution (Yang et al. (1993) Calcif Tissue Int 52:57–61). Images of the growth plate and proximal tibia were photographed using a photoMicroGraphic Digitize integrate System (MGDS; Total-Integra Technology Co., Ltd., Taipei, Taiwan). Bone volume measurements were performed on the whole secondary spongiosa, which is located under the primary spongiosa and characterized by a network of larger trabeculae. Bone volumes were calculated using an image analysis software. All measurements were done in a single-blind fashion. Bone growth: Male young rats (SD) weighing 70–90 gm were divided into six groups. The average weight of the rats in each group was 73.9±1.1 gm. Indazole 1 was dissolved in DMSO and diluted with saline to a final concentration of 10 μM. One of the six groups was a control group, and the other groups were punctuated with a needle cannula alone, injected with a vehicle using a needle cannula (day 1, once), injected with Indazole 1 (day 1, once), injected with a vehicle using a needle cannula (days 1–7, daily), and injected with Indazole 1 (days 1–7, daily), respectively. […] Trabecular bone in the secondary spongiosa increased by 90% after local injection of Indazole 1 for 7 days.

## COC(=O)[C@@]1(OC)C[C@H]2O[C@]1(C)n1c3ccccc3c3c4c(c5c6ccccc6n2c5c31)C(=O)N(C)C4 [KT5823]
Primary osteoblast cells; KT5823 2 μM
  effect on the increase of ALP activity by Indazole 1: antagonized

## COC(=O)[C@@H](N)CCCNC(=N)N[N+](=O)[O-] [L-NAME, N^G-nitro-L-arginine-methylester, reference compound]
Male SD rats
  effect on enhancement of bone formation in the secondary spongiosa by Indazole 1: significantly attenuated
Primary osteoblast cells; L-NAME 60 μM
  effect on the increase of ALP activity by Indazole 1: antagonized

## O=c1onc2cnc3ccccc3n12 [ODQ]
Primary osteoblast cells; ODQ 20 μM
  effect on the increase of ALP activity by Indazole 1: antagonized
